The source of these data is article PMC8448719 (Archives of Toxicology, 2021).

Like-named read-outs stand apart in the source and are kept apart here.

The conditions of data set [1]: 3-OHBaP in rat blood, read-out: Cmax reported, cited from earlier work.
A short description of data set [2]: Metabolism of BaP in incubations with rat liver microsomes. The class given is in vitro ADME, rat. As for the experimental part:
(§1) All in vitro Vmax values were scaled to microsomal or S9 protein content of rat liver using the following scaling factors: 45 mg microsomal protein per gram liver tissue and 125 mg S9 protein per gram liver tissue (Houston and Galetin [2008]). The scaled Vmax values were subsequently converted to Vmax in nmol/min/liver using the liver weight of 9.1 g, calculated from the body weight and fractional liver weight presented in Table 1. The Km in vitro was assumed equal to the Km in vivo.
(§2) The incubation mixtures consisted of (final concentrations) 0.1 mM potassium phosphate (pH 7.4), 5 mM MgCl2, 0.5 mg/ml rat liver microsomes or 2 mg/ml rat lung microsomes, and 1 mM NADPH in conical glass vials. […] The mixtures were incubated in a shaking water bath at 37 °C for 30 min. 20 µl ice-cold 10% (v/v) perchloric acid (HClO4) was added to terminate the reactions and the mixtures were put on ice for at least 15 min. Di-isopropyl ether (DIPE) was used to extract BaP and its metabolites from the incubation mixture. To this end, 1 ml DIPE was added to each incubation mixture, the tubes vortexed for 20 s and the upper layer was collected. Extraction was performed three times. Remaining DIPE was removed by evaporation under a stream of N2. Subsequently, extracts were re-dissolved in 100 µl methanol and transferred to UPLC vials for analysis.
The UPLC was equipped with a Photodiode Array (PDA) detector, recording wavelengths between 190 and 400 nm and a Phenomenex C18 column (Phenomenex, Torrance, California, United States). The column temperature was kept at 40 °C and the auto-sampler at 4 °C during analysis. The mobile phase consisted of Nanopure water containing 0.1% (v/v) trifluoroacetic acid (TFA) (A) and acetonitrile containing 0.1% (v/v) TFA (B) at a flow rate of 0.3 ml/min. The total run time was 23 min and 30 s, starting with 10% B for 30 s, increasing to 100% B in 15 min, maintaining this condition for 3 min before returning to the initial conditions of 10% B in 30 s. 10 µl of sample was injected per run. Under these conditions the metabolite 3-OHBaP, detected at 258 nm, eluted at 10.16 min. For the glucuronidated and sulfonated metabolite of 3-OHBaP, retention time and detection wavelength were 7.5 min, 303.3 nm and 7.4 min, 301 nm, respectively. The amounts of 3-OHBaP in the microsomal incubation sample and of glucuronidated and sulfated 3-OHBaP in the S9 incubation samples were quantified by integrating peak areas at their respective wavelengths using a calibration curve prepared with commercially available 3-OHBaP. To obtain the Vmax and Km the in vitro data for the substrate concentration-dependent rate of metabolite formation were fitted to the Michaelis–Menten equation using Graphpad Prism 9.0.1 for Windows (GraphPad Software, San Diego, California, USA).
For orientation: Liver microsomes are a subcellular fraction often used to study metabolism.

Another data set concerns ES-D3 cells. Further details: method as in Kamelia et al. (2020). The conditions noted are these: without bioactivation; ref Kamelia et al. (2020); cited from earlier work.
A short description of data set [3]: PBK model prediction of 3-OHBaP blood concentrations in rat. The note with it: intravenous; Marie et al. (2010). The source says:
The conceptual PBK model for BaP consisted of separate compartments for venous blood, arterial blood, fat tissue, liver tissue, lung tissue, rapidly and slowly perfused tissue, stomach and intestines. 3-OHBaP is highly lipophilic. To prevent 3-OHBaP from partitioning into the fat tissue in the model simulations, it was essential to include a blood protein compartment in the model to allow binding of 3-OHBaP to blood protein. The unbound fraction of 3-OHBaP in the blood compartment was represented by the fub, in vivo, calculated as described in “Translating in vitro concentration–response data into in vivo dose–response data using PBK modelling-based reverse dosimetry” section. The fraction of 3-OHBaP bound to protein in the blood protein compartment (fb, in vivo) was calculated as 1 minus the fub, in vivo. […] Clearance of 3-OHBaP was assumed to result from hepatic and pulmonary conjugation (Cohen [1990]; Cohen and Moore [1976]). […]
For oral exposure, stomach emptying and intestinal transfer of the parent compound were included. […] The Papp, in vivo was calculated using the following equation: log (Papp, in vivo) = 0.6836 × log (Papp, Caco−2) − 0.5579 (Sun et al. [2002]) and applied in the model as described before (Zhang et al. [2018]). […]

Data set [4] can be described thus: Glucuronidation of 3-OHBaP in incubations with rat liver S9. It is filed as in vitro ADME. As for the experimental part: as §1
(§3) Incubations with rat liver and lung S9 fractions were optimized to establish linearity over time and protein concentrations for the rate of glucuronidation and sulfation of 3-OHBaP. […]
Kinetics for 3-OHBaP glucuronidation, were quantified using incubations with pooled liver S9 fractions from male SD rats. […]
(§4) All incubation mixtures were pre-incubated for 1 min, after which the reaction was initiated by addition of 3-OHBaP in final concentrations ranging from 0.01 to 50 µM (glucuronidation) or 0.01–100 µM (sulfation) added from 100 times concentrated stock solutions in DMSO to reach the final volume of 200 µl (1% DMSO v/v). […] The supernatant was collected and analysed by Ultra Performance Liquid Chromatography (UPLC). […]

A short description of data set [5]: Sulfation of 3-OHBaP in incubations with rat liver S9. The class given is in vitro ADME. The conditions noted are these: male, SD, pooled rat liver S9, pH 7.4. As for the experimental part:
as §1, §3
Hepatic sulfonation of 3-OHBaP was evaluated using pooled liver S9 fractions of male SD rats, in incubation mixtures with a final volume of 200 µl in conical glass vials containing (final concentrations) 0.1 mM Tris–HCl (pH 7.4), 0.1 mg/ml rat liver S9 and 0.2 mM PAPS.
as §4

For data set [6] the following is noted: rat PBK model; ref Crowell et al. (2011); cited from earlier work.
In the next data set the test system is F-344 rat. Nature of the data set: In vivo reproductive toxicity of BaP (foetal survival), nasal inhalation. The conditions noted are these: inhalation expressed as oral dose equivalent, data of Archibong et al. (2002). As for the experimental part:
Foetal survival, calculated as the fraction of live foetuses relative to the number of implantation sites reported in these studies, was taken as measure for in vivo reproductive toxicity. […] These oral dose equivalents in mg/kg bw were used for the comparison with model predicted dose–response data.
ED50 values were calculated for the predicted and reported dose–response data, using the non-linear regression with three parameters in Graphpad Prism version 9.0.1 for Windows (GraphPad Software, San Diego, California USA). The ED50 value was calculated for the fraction differentiated into beating cardiomyocytes for the predicted dose–response data. For the in vivo studies, foetus survival (number of live foetuses as fraction of total implantations) was used as response.

A further data set has as its system Caco-2 cells. The note with it: cited from earlier work.
For data set [7] the following is noted: rat, in vivo; cited from earlier work.
The format of data set [8] is in vitro ADME. The conditions noted are these: rat, 30 min, pH 7.4. As for the experimental part: as §2
The UPLC was equipped with a Photodiode Array (PDA) detector, recording wavelengths between 190 and 400 nm and a Phenomenex C18 column (Phenomenex, Torrance, California, United States). […] Under these conditions the metabolite 3-OHBaP, detected at 258 nm, eluted at 10.16 min. […] The amounts of 3-OHBaP in the microsomal incubation sample and of glucuronidated and sulfated 3-OHBaP in the S9 incubation samples were quantified by integrating peak areas at their respective wavelengths using a calibration curve prepared with commercially available 3-OHBaP. […]

[9] abbreviates: formation of the metabolite from BaP, rat liver microsomes.

For `Oc1ccc2ccc3c4ccccc4cc4ccc1c2c43` [3-OHBaP, 3-hydroxybenzo[a]pyrene], the highest concentration (Cmax) (commonly the peak of the concentration-time curve) in [1] (intratracheal 10 mg/kg bw BaP, ref Moreau and Bouchard (2015)) was 140 nM. For the same compound, in [1] (intravenous 10 mg/kg bw BaP, ref Marie et al. (2010)), the Cmax is 720 nM. Further, in [1] (intravenous 10 mg/kg bw BaP, ref Moreau and Bouchard (2015)), the Cmax is 220 nM. The highest concentration (Cmax) in data set [1] (oral 10 mg/kg bw BaP, ref Moreau and Bouchard (2015)) is 100 nM. Further, in data set [2] (setting [9]), the Vmax is recorded as 162.2 ± 47.6 pmol/min/mg microsomal protein. Besides, the “Result in the EST” value in the data set on ES-D3 cells was “induces developmental toxicity”. In addition, the “Cmax reported relative to predicted Cmax (fold higher)” value in [3] is 1.1 fold. Besides, the “Concentration at which substrate inhibition occurred” value in [4] (glucuronidation) is at least 50000 nM. Moreover, the Michaelis constant (Km) (as a rule, the concentration of substrate that gives half-maximal velocity) at 20 min in data set [4] (male, SD, pooled rat liver S9, pH 7.4, glucuronidation of 3-OHBaP) was determined as 10 µM. The Michaelis constant (Km) at 70 min in [5] was found to be 17 µM. For the same compound, in [6], the “Tissue:blood partition coefficient, fat” value is reported as 401; the “Tissue:blood partition coefficient, liver” value was 12.24; the “Tissue:blood partition coefficient, lung” value is reported as 12.24; the “Tissue:blood partition coefficient, rapidly perfused tissue” value is 12.24. The “Tissue:blood partition coefficient, slowly perfused tissue” value in data set [6] is listed as 6.43.

In the case of `O=C1C=Cc2ccc3c4c(ccc1c24)-c1ccccc1C3=O` [B[a]P-1,6-quinone], the Vmax in data set [2] (setting [9]) is on record as 22.2 ± 3.2 pmol/min/mg microsomal protein.

For the compound `O=C1C=Cc2ccc3c4c(ccc1c24)C(=O)c1ccccc1-3` [B[a]P-3,6-quinone], the Vmax in data set [2] (setting [9]) is listed as 3.0 ± 0.5 pmol/min/mg microsomal protein.

Consider `c1ccc2c(c1)cc1ccc3cccc4ccc2c1c34` [BaP, benzo[a]pyrene], for which, in the data set with F-344 rat, the “ED50 derived from reported in vivo dose-response data” value was 29 mg/kg bw per day. Also, in the data set on Caco-2 cells, the “Log Papp, Caco-2” value is recorded as -5.42 and the “Papp, Caco-2” value is on record as 3.8 x1E-6 cm/sec. Moreover, in data set [2] (rat, 30 min, pH 7.4), the Vmax is reported as 0.16 nmol/min/mg microsomal protein and the “Vmax scaled to the whole liver” value is listed as 4.1 µmol/min/liver. In addition, in data set [2] (rat, pH 7.4, Km), the Km at 30 min amounted to 34 µM. For the same compound, the “Blood concentration in maternal versus foetal blood” value in data set [7] is “similar”. In addition, in [8] (200 µM), the “Rate of 3-OHBaP formation” value is 0.81 pmol/min/mg protein. Further, the “Formation of 3-OHBaP in lung microsomes” value in data set [8] is “did not result in formation of detectable levels of 3-OHBaP”.
